TGI and GI50 data for 9 compounds are collected here from PubChem BioAssay (NCI).

Test systems include TK-10 renal; CCRF-CEM leukemia; COLO 205 colon; HT29 colon; SR leukemia; SNB-19 CNS; NCI-H460 lung; HOP-92 NSCLC; A498 renal; SK-OV-3 ovarian.
Common to all, as to experiment: NCI tumour cell line growth inhibition, 48 h

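Exposure lasted 48 hours, with cells grown in 96-well plates and compounds tested at five concentrations. Here, GI50 denotes the concentration required for 50% inhibition of growth. TGI: concentration producing complete growth inhibition.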

As to `COc1ccc2c(c1)[C@@H](NC(C)=O)CCc1cc(OC)c(OC)c(OC)c1-2`, the TGI in the assay with TK-10 renal is above 100 µM; in the assay with CCRF-CEM leukemia, above 100 µM; in the assay with COLO 205 colon it was 0.02 µM; in the assay on HT29 colon, 0.124 µM; with SR leukemia it was above 90.2 µM; in the assay on SNB-19 CNS it was above 10.5 µM. The TGI in the assay on NCI-H460 lung is above 15.8 µM; with HOP-92 NSCLC it was above 9.04 µM; with A498 renal, above 100 µM; in the assay on SK-OV-3 ovarian, 4.1 µM.
On to `CC(=O)C1(O)CC2(c3ccccc3)C(=O)C1(c1ccccc1)C(c1ccccc1)=C2c1ccccc1` (configuration not stated), for which the TGI in the assay on TK-10 renal, with CCRF-CEM leukemia, with COLO 205 colon, in the assay with HT29 colon, in the assay on SR leukemia and in the assay on SNB-19 CNS was above 100 µM throughout. In addition, the TGI with NCI-H460 lung, in the assay on HOP-92 NSCLC, in the assay on A498 renal and in the assay on SK-OV-3 ovarian was above 100 µM throughout.
In the case of `Nc1c(C(=O)Nc2cccc(Cl)c2)sc2nc3c(cc12)C(=O)CCC3`, the GI50 with TK-10 renal was 36.7 µM; with CCRF-CEM leukemia, 0.383 µM; in the assay with COLO 205 colon, 0.288 µM; with HT29 colon, 0.338 µM; in the assay with SR leukemia it was 0.383 µM; with SNB-19 CNS, 0.529 µM. Besides, the GI50 is 0.322 µM in the assay with NCI-H460 lung, 0.134 µM with A498 renal and 0.313 µM with SK-OV-3 ovarian. The TGI in the assay with TK-10 renal, with CCRF-CEM leukemia, in the assay with HT29 colon, with SR leukemia, in the assay on SNB-19 CNS and in the assay on NCI-H460 lung was above 100 µM each time. The TGI in the assay with HOP-92 NSCLC was above 100 µM; with SK-OV-3 ovarian, above 70.5 µM.
For `O=C(O)c1ccc(N(/C=C/C(=O)C(F)(F)F)Cc2ccc(Cl)cc2)cc1`, the GI50 in the assay with TK-10 renal is 27 µM; with CCRF-CEM leukemia it was 25.8 µM; in the assay on COLO 205 colon, 36.7 µM; in the assay on HT29 colon it was 37 µM; with SR leukemia it was 27.3 µM; with SNB-19 CNS, 47.9 µM. The GI50 in the assay with NCI-H460 lung is above 100 µM; with HOP-92 NSCLC, 19.5 µM; in the assay on A498 renal, 22 µM; in the assay with SK-OV-3 ovarian it was 35.5 µM. In addition, the TGI with TK-10 renal is 60.8 µM; with CCRF-CEM leukemia, above 100 µM; in the assay with COLO 205 colon, above 100 µM; in the assay with HT29 colon, above 100 µM; in the assay on SR leukemia it was 71.5 µM; in the assay with SNB-19 CNS, above 100 µM. Besides, the TGI is above 100 µM with NCI-H460 lung, 82.4 µM in the assay with HOP-92 NSCLC, 62.9 µM in the assay with A498 renal and above 100 µM in the assay with SK-OV-3 ovarian.
For the compound `O=C1C=C(Nc2ccccc2)c2ccccc2C1=O`, the GI50 in the assay with TK-10 renal is 2.86 µM; in the assay on CCRF-CEM leukemia, 3.54 µM; in the assay with COLO 205 colon, 1.96 µM; in the assay on HT29 colon it was 2.35 µM; with SR leukemia, 3.22 µM; in the assay with SNB-19 CNS it was 2.2 µM. Besides, the GI50 with NCI-H460 lung is 2.44 µM; in the assay with HOP-92 NSCLC it was 2.73 µM; in the assay on A498 renal it was 1.96 µM; with SK-OV-3 ovarian, 2.95 µM. Further, the TGI in the assay with TK-10 renal was determined as 7.75 µM; in the assay with CCRF-CEM leukemia, 14.7 µM; in the assay on COLO 205 colon, 3.61 µM; in the assay on HT29 colon it was 5.17 µM; in the assay on SR leukemia, 12.4 µM; in the assay on SNB-19 CNS, 6.73 µM. For the same compound, the TGI turned out to be 6.47 µM in the assay with NCI-H460 lung, 13.2 µM in the assay with HOP-92 NSCLC, 5.26 µM with A498 renal and 8.99 µM in the assay with SK-OV-3 ovarian.
As to `Sc1cccc2cccnc12`, the GI50 with TK-10 renal is 4.16 µM; in the assay on CCRF-CEM leukemia, 0.392 µM; in the assay on COLO 205 colon it was 2.32 µM; in the assay on HT29 colon, 0.918 µM; with SR leukemia it was 0.28 µM; with SNB-19 CNS, 1.82 µM. In addition, the GI50 in the assay on NCI-H460 lung is 0.389 µM; in the assay with HOP-92 NSCLC, 7.11 µM; in the assay on A498 renal, 2.45 µM; in the assay on SK-OV-3 ovarian, 3.04 µM. Also, the TGI was 15.6 µM in the assay on TK-10 renal; 24.5 µM in the assay on CCRF-CEM leukemia; 9.38 µM in the assay on COLO 205 colon; 11.2 µM in the assay on HT29 colon; above 56.1 µM in the assay with SR leukemia; 17.3 µM with SNB-19 CNS. In addition, the TGI in the assay with NCI-H460 lung amounted to 6.23 µM; in the assay with HOP-92 NSCLC it was 20.5 µM; in the assay with A498 renal it was 8.8 µM; with SK-OV-3 ovarian, 13.8 µM.
`N#CC1=C(N)Oc2c(sc3c(Br)cccc23)C1c1ccc([N+](=O)[O-])cc1` (configuration not stated): the GI50 with TK-10 renal was 2.32 µM; in the assay with CCRF-CEM leukemia it was 0.121 µM; in the assay with COLO 205 colon it was 0.224 µM; in the assay on HT29 colon it was 0.297 µM; in the assay on SR leukemia, 0.048 µM; in the assay on SNB-19 CNS, 0.139 µM. In addition, the GI50 was 0.0655 µM in the assay on NCI-H460 lung, 0.0441 µM in the assay on HOP-92 NSCLC, 0.0434 µM with A498 renal and 0.128 µM with SK-OV-3 ovarian. For the same compound, the TGI in the assay on TK-10 renal was 20 µM; with CCRF-CEM leukemia, 9.89 µM; in the assay with COLO 205 colon it was 1.14 µM; in the assay on HT29 colon, 3.2 µM; in the assay on SR leukemia, 6.45 µM; in the assay with SNB-19 CNS it was 13 µM. The TGI with NCI-H460 lung stood at 10.4 µM; in the assay on HOP-92 NSCLC, 8.82 µM; in the assay with A498 renal, 0.935 µM; with SK-OV-3 ovarian, 15.1 µM.
Turning to `CCOC(=O)c1noc2c1CCc1c-2cn(Cc2ccc(OC)cc2)c1-c1cc(OC)c(OC)c(OC)c1`, the GI50 in the assay with TK-10 renal was above 100 µM; with CCRF-CEM leukemia, 1.04 µM; with COLO 205 colon it was 1.77 µM; with HT29 colon, 0.846 µM; in the assay on SR leukemia it was 2.09 µM; with SNB-19 CNS, 0.668 µM. Besides, the GI50 is 1 µM in the assay with NCI-H460 lung, 2.72 µM with HOP-92 NSCLC, 2.77 µM in the assay on A498 renal and 5.23 µM with SK-OV-3 ovarian. Moreover, the TGI was above 100 µM in the assay on TK-10 renal; above 100 µM with CCRF-CEM leukemia; 7.82 µM with COLO 205 colon; above 100 µM in the assay with HT29 colon; above 100 µM in the assay with SR leukemia; above 100 µM in the assay on SNB-19 CNS. For the same compound, the TGI was above 100 µM in the assay on NCI-H460 lung, above 100 µM with HOP-92 NSCLC, 42 µM in the assay with A498 renal and above 100 µM in the assay on SK-OV-3 ovarian.
With `C=C(CO)C(=O)OC1CC(=C)C2CC(O)C(C)C2C2OC(=O)C(=C)C12` (configuration not stated), the TGI in the assay with TK-10 renal was 33.2 µM; in the assay on CCRF-CEM leukemia, 77.7 µM; in the assay on COLO 205 colon, 90.4 µM; in the assay with HT29 colon, 53.9 µM; with SR leukemia, 51.2 µM; in the assay with SNB-19 CNS it was 61.6 µM. Besides, the TGI in the assay on NCI-H460 lung was above 100 µM; in the assay with HOP-92 NSCLC it was 77.6 µM; in the assay with A498 renal, above 100 µM; in the assay with SK-OV-3 ovarian it was above 100 µM.
